Laboratory results: patent US6969713B2, “Piperidine and piperazine acetamide derivatives” (AstraZeneca AB, priority 1999, dated 2005)

Compound | melting point
Cc1ccc(NS(C)(=O)=O)cc1NC(=O)CN1CC2CCC(C1)N2c1ncnc2scnc12 | 145 to 187 °C
O=C1Cc2c(cccc2NC(=O)CN2CC3CCC(C2)N3c2ncnc3sccc23)N1 | 265 °C (dec.)
Cc1c(F)cccc1NC(=O)CN1CC2CCC(C1)N2S(=O)(=O)c1ccccc1 | 168 to 169 °C
Cc1ccccc1NC(=O)CN1CC2CCC(C1)N2S(=O)(=O)c1cccc(C#N)c1 | 166 to 168 °C
COc1cccc(S(=O)(=O)N2C3CCC2CN(CC(=O)Nc2ccccc2C)C3)c1 | 163 to 165 °C
Cc1ccccc1NC(=O)CN1CC2CCC(C1)N2S(=O)(=O)c1cccc2nonc12 | 167 to 168 °C
Cc1ccccc1NC(=O)CN1CC2CCC(C1)N2S(=O)(=O)c1cccc2nsnc12 | 169 to 170 °C
Cc1ccccc1NC(=O)CN1CC2CCC(C1)N2S(=O)(=O)c1ccc(Cl)s1 | 150 to 152 °C
Cc1ccccc1NC(=O)CN1CC2CCC(C1)N2S(=O)(=O)c1ccccc1Cl | 170 to 171 °C
COc1ccc(Cl)cc1S(=O)(=O)N1C2CCC1CN(CC(=O)Nc1ccccc1C)C2 | 180 to 181 °C
CC(=O)Nc1ccc(S(=O)(=O)N2C3CCC2CN(CC(=O)Nc2ccccc2C)C3)cc1 | 205 to 206 °C
Cc1ccccc1NC(=O)CN1CC2CCC(C1)N2c1ncnc2scc(C)c12 | 199 to 200 °C
Cc1cccc(C)c1NC(=O)CN1CCN(c2ncnc3sccc23)C(C)C1 (racemic) [Example 1, (±)-N-(2,6-Dimethylphenyl)-2-(3-methyl-4-(thieno[2,3-d]pyrimidin-4-yl)piperazin-1-yl)acetamide] | 184 to 185 °C
Cc1cccc(C)c1NC(=O)CN1C[C@@H](C)N(c2ncnc3sccc23)[C@@H](C)C1 [Example 2, cis-[2-(3,5-Dimethyl-4-(thieno[2,3-d]pyrimidin-4-yl)piperazin-1-yl)]-N-(2,6-dimethylphenyl)acetamide] | 186 to 189 °C
Cc1c(CO)cccc1NC(=O)CN1C[C@@H](C)N(c2ncnc3sccc23)[C@@H](C)C1 [Example 4, cis-N-[3-Hydroxymethyl-2-methylphenyl]-2-(3,5-dimethyl-4-(thieno[2,3-d]pyrimidin-4-yl)piperazin-1-yl)acetamide] | 203 to 204 °C
Cc1ccccc1NC(=O)CN1C[C@@H](C)N(c2ncnc3sccc23)[C@@H](C)C1 [Example 6, cis-2-[3,5-Dimethyl-4-(thieno[2,3-d]pyrimidin-4-yl)piperazin-1-yl]-N-(2-methylphenyl)acetamide] | 174 to 175 °C

Compound | melting point
C[C@@H]1CN(CC(=O)Nc2ccccc2Cl)C[C@H](C)N1c1ncnc2sccc12 [Example 7, cis-N-(2-Chlorophenyl)-2-[3,5-dimethyl-4-(thieno[2,3-d]pyrimidin-4-yl)piperazin-1-yl]acetamide] | 206 to 207 °C
C[C@@H]1CN(CC(=O)Nc2ccccc2Cl)C[C@H](C)N1c1ncnc2c1ncn2C [Example 8, cis-N-(2-Chlorophenyl)-2-[3,5-dimethyl-4-(9-methyl-9H-purin-6yl)piperazin-1-yl]acetamide] | 221 to 222 °C
C[C@@H]1CN(CC(=O)Nc2cccc3cnccc23)C[C@H](C)N1c1ncnc2sccc12 [Example 9, cis-2-(3,5-Dimethyl-4-(thieno[2,3-d]pyrimidin-4-yl)piperazin-1-yl)-N-(isoquinolin-5-yl)acetamide] | 213 to 216 °C
C[C@@H]1CN(CC(=O)Nc2cccc3ncccc23)C[C@H](C)N1c1ncnc2sccc12 [Example 10] | 194 to 195 °C
C[C@@H]1CN(CC(=O)Nc2ccccc2C(F)(F)F)C[C@H](C)N1c1ncnc2sccc12 [Example 12, cis-2-(3,5-Dimethyl-4-(thieno[2,3-d]pyrimidin-4-yl)piperazin-1-yl]-N-(2-trifluoromethylphenyl)acetamide] | 154 to 155 °C
Cc1cccnc1NC(=O)CN1C[C@@H](C)N(c2ncnc3sccc23)[C@@H](C)C1 [Example 13, cis-2-(3,5-Dimethyl-4-(thieno[2,3-d]pyrimidin-4-yl)piperazin-1-yl)-N-(3-methylpyridin-2-yl)acetamide] | 157 to 159 °C
C[C@@H]1CN(CC(=O)Nc2nccc3ccccc23)C[C@H](C)N1c1ncnc2sccc12 [Example 14, cis-2-(3,5-Dimethyl-4-(thieno[2,3-d]pyrimidin-4-yl)piperazin-1-yl)-N-(isoquinolin-1-yl)acetamide] | 206 to 207 °C
C[C@@H]1CN(CC(=O)Nc2nc3ccccc3n2C)C[C@H](C)N1c1ncnc2sccc12 [Example 49, cis-2-(3,5-Dimethyl-4-(thieno[2,3-d]pyrimidin-4-yl)piperazin-1-yl)-N-(1-methyl-1H-benzoimidazol-2-yl)acetamide] | 200 °C
Cc1ccccc1NC(=O)CN1C[C@@H](C)N(S(=O)(=O)c2cccc(C#N)c2)[C@@H](C)C1 [Example 55, cis-2-[4-(3-Cyanobenzenesulphonyl)-3,5-dimethylpiperazin-1-yl]-N-(2-methylphenyl)acetamide] | 152 to 153 °C
Cc1ccccc1NC(=O)CN1C[C@@H](C)N(S(=O)(=O)c2cccc([N+](=O)[O-])c2)[C@@H](C)C1 [Example 56, cis-N-(2-Methylphenyl)-2-[4-(3-nitrobenzenesulphonyl)-3,5-dimethylpiperazin-1-yl]-acetamide] | 163 to 164 °C
Cc1ccccc1NC(=O)CN1C[C@@H](C)N(S(=O)(=O)c2cccc(N)c2)[C@@H](C)C1 [Example 57, cis-2-[4-(3-Aminobenzenesulphonyl)-3,5-dimethylpiperazin-1-yl]-N-(2-methylphenyl)acetamide] | 202 to 203 °C
CC(=O)Nc1cccc(S(=O)(=O)N2[C@H](C)CN(CC(=O)Nc3ccccc3C)C[C@@H]2C)c1 [Example 62, cis-2-[4-(3-Acetylaminobenzenesulphonyl)-3,5-dimethylpiperazin-1-yl]-N-(2-methylphenyl)acetamide] | 236 to 238 °C
Cc1ccccc1NC(=O)CN1C[C@@H](C)N(S(=O)(=O)c2cccc(C(N)=O)c2)[C@@H](C)C1 [Example 63, cis-2-[4-(3-Aminocarbonylbenzenesulphonyl)-3,5-dimethylpiperazin-1-yl]-N-(2-methylphenyl)acetamide] | 124 to 125 °C
Cc1ccccc1NC(=O)CN1C[C@@H](C)N(S(=O)(=O)c2cccc(NS(C)(=O)=O)c2)[C@@H](C)C1 [Example 64, cis-2-[4-(3-Methanesulphonylaminobenzenesulphonyl)-3,5-dimethylpiperazin-1-yl]-N-(2-methylphenyl)acetamide] | 102 to 103 °C
Cc1ccccc1NC(=O)CN1C[C@@H](C)N(S(=O)(=O)c2cccc(C(=O)NCCN)c2)[C@@H](C)C1 [Example 71, cis-2-[4-(2-Aminoethylaminocarbonylbenzenesulphonyl)-3,5-dimethylpiperazin-1-yl]-N-(2-methylphenyl)acetamide] | 90 to 92 °C
